System: KRAS PDC multicell spheroid viability
Assay: Anticancer human tumor 521955-158-R6-J3-PDC patient-derived pancreatic carcinoma cell line growth inhibition [KRAS2]
Details: for IC50: curve of first compound; for viability, T/C: stronger effect = lower value
In short: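 Combination screen of spheroid viability in tumor-cell co-cultures with endothelial (HUVEC) and mesenchymal stem cell stroma. Each agent was tested in half-log dilutions, topping at clinical Cmax or at 10 microM without a known Cmax.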

[1] = second compound 0.1 µM, first compound 0.0001 µM
[2] = second compound 0.1 µM, first compound 0.000316 µM
[3] = second compound 0.1 µM, first compound 0.001 µM
[4] = second compound 0.1 µM, first compound 0.00316 µM
[5] = second compound 0.1 µM, first compound 0.01 µM
[6] = second compound 0.1 µM, first compound 0.0316 µM
[7] = second compound 0.316 µM, first compound 0.0001 µM
[8] = second compound 0.316 µM, first compound 0.000316 µM
[9] = second compound 0.316 µM, first compound 0.001 µM
[10] = second compound 0.316 µM, first compound 0.00316 µM
[11] = second compound 0.316 µM, first compound 0.01 µM
[12] = second compound 0.316 µM, first compound 0.0316 µM
[13] = second compound 1 µM, first compound 0.0001 µM
[14] = second compound 1 µM, first compound 0.000316 µM
[15] = second compound 1 µM, first compound 0.001 µM
[16] = second compound 1 µM, first compound 0.00316 µM
[17] = second compound 1 µM, first compound 0.01 µM
[18] = second compound 1 µM, first compound 0.0316 µM
[19] = second compound 3.16 µM, first compound 0.0001 µM
[20] = second compound 3.16 µM, first compound 0.000316 µM
[21] = second compound 3.16 µM, first compound 0.001 µM
[22] = second compound 3.16 µM, first compound 0.00316 µM
[23] = second compound 3.16 µM, first compound 0.01 µM
[24] = second compound 3.16 µM, first compound 0.0316 µM
[25] = second compound 10 µM, first compound 0.0001 µM
[26] = second compound 10 µM, first compound 0.000316 µM
[27] = second compound 10 µM, first compound 0.001 µM
[28] = second compound 10 µM, first compound 0.00316 µM
[29] = second compound 10 µM, first compound 0.01 µM
[30] = second compound 10 µM, first compound 0.0316 µM
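Further: drug exposure lasted seven days.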
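Wherever viability, T/C is given: 100% = DMSO vehicle wells and lower means fewer viable cells.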

CC(=O)Nc1cccc(-n2c(=O)n(C3CC3)c(=O)c3c(Nc4ccc(I)cc4F)n(C)c(=O)c(C)c32)c1 + COc1cc2nc(C)nc(NC(C)c3cc(N)cc(C(F)(F)F)c3)c2cc1OC1CCOC1
IC50 (second compound 0.1 µM): 16.7 nM
IC50 (second compound 0.316 µM): 10.2 nM
IC50 (second compound 1 µM): 12.3 nM
IC50 (second compound 3.16 µM): 6.23 nM
IC50 (second compound 10 µM): < 0.1 nM
viability, T/C [1]: 88%
viability, T/C [2]: 88.4%
viability, T/C [3]: 92.4%
viability, T/C [4]: 81.7%
viability, T/C [5]: 60.7%
viability, T/C [6]: 36.9%
viability, T/C [7]: 88.1%
viability, T/C [8]: 83.6%
viability, T/C [9]: 75.3%
viability, T/C [10]: 67.1%
viability, T/C [11]: 48.8%
viability, T/C [12]: 37.4%
viability, T/C [13]: 81.4%
viability, T/C [14]: 86.6%
viability, T/C [15]: 81.1%
viability, T/C [16]: 67.5%
viability, T/C [17]: 55.4%
viability, T/C [18]: 31.8%
viability, T/C [19]: 72.6%
viability, T/C [20]: 79.3%
viability, T/C [21]: 76.7%
viability, T/C [22]: 54.6%
viability, T/C [23]: 45.5%
viability, T/C [24]: 21.8%
viability, T/C [25]: 20.7%
viability, T/C [26]: 21.2%
viability, T/C [27]: 10.6%
viability, T/C [28]: 1.6%
viability, T/C [29]: 4.51%
viability, T/C [30]: 2.2%

O=C(c1cc(Cc2n[nH]c(=O)c3ccccc23)ccc1F)N1CCN(C(=O)C2CC2)CC1 + COc1cc2nc(C)nc(NC(C)c3cc(N)cc(C(F)(F)F)c3)c2cc1OC1CCOC1
IC50 (second compound 0.1 µM): > 10000 nM
IC50 (second compound 0.316 µM): > 10000 nM
IC50 (second compound 1 µM): > 10000 nM
IC50 (second compound 3.16 µM): > 10000 nM
IC50 (second compound 10 µM): > 10000 nM
viability, T/C [6]: 82.4%
viability, T/C (second compound 0.1 µM, first compound 0.1 µM): 76.4%
viability, T/C (second compound 0.1 µM, first compound 0.316 µM): 86.1%
viability, T/C (second compound 0.1 µM, first compound 1 µM): 75.5%
viability, T/C (second compound 0.1 µM, first compound 3.16 µM): 69.2%
viability, T/C (second compound 0.1 µM, first compound 10 µM): 80.2%
viability, T/C [12]: 88.9%
viability, T/C (second compound 0.316 µM, first compound 0.1 µM): 88.8%
viability, T/C (second compound 0.316 µM, first compound 0.316 µM): 80.5%
viability, T/C (second compound 0.316 µM, first compound 1 µM): 70.5%
viability, T/C (second compound 0.316 µM, first compound 3.16 µM): 67.1%
viability, T/C (second compound 0.316 µM, first compound 10 µM): 77.7%
viability, T/C [18]: 90.9%
viability, T/C (second compound 1 µM, first compound 0.1 µM): 88.3%
viability, T/C (second compound 1 µM, first compound 0.316 µM): 97.1%
viability, T/C (second compound 1 µM, first compound 1 µM): 70.8%
viability, T/C (second compound 1 µM, first compound 3.16 µM): 70.3%
viability, T/C (second compound 1 µM, first compound 10 µM): 83.5%
viability, T/C [24]: 70.1%
viability, T/C (second compound 3.16 µM, first compound 0.1 µM): 75.6%
viability, T/C (second compound 3.16 µM, first compound 0.316 µM): 67.2%
viability, T/C (second compound 3.16 µM, first compound 1 µM): 60.8%
viability, T/C (second compound 3.16 µM, first compound 3.16 µM): 63.6%
viability, T/C (second compound 3.16 µM, first compound 10 µM): 75.9%
viability, T/C [30]: 55.4%
viability, T/C (second compound 10 µM, first compound 0.1 µM): 59.5%
viability, T/C (second compound 10 µM, first compound 0.316 µM): 55.9%
viability, T/C (second compound 10 µM, first compound 1 µM): 53.3%
viability, T/C (second compound 10 µM, first compound 3.16 µM): 65.3%
viability, T/C (second compound 10 µM, first compound 10 µM): 77.4%

CC(=O)Nc1cccc(-n2c(=O)n(C3CC3)c(=O)c3c(Nc4ccc(I)cc4F)n(C)c(=O)c(C)c32)c1 + CC1OCC2(CCN(c3cnc(Sc4ccnc(N)c4Cl)c(N)n3)CC2)C1N
IC50 (second compound 0.1 µM): 18.9 nM
IC50 (second compound 0.316 µM): 12.5 nM
IC50 (second compound 1 µM): 5.43 nM
IC50 (second compound 3.16 µM): 2.44 nM
IC50 (second compound 10 µM): 2.24 nM
viability, T/C [1]: 87.8%
viability, T/C [2]: 82.8%
viability, T/C [3]: 91.2%
viability, T/C [4]: 83.5%
viability, T/C [5]: 56.7%
viability, T/C [6]: 44.6%
viability, T/C [7]: 83.2%
viability, T/C [8]: 85.7%
viability, T/C [9]: 77.2%
viability, T/C [10]: 65%
viability, T/C [11]: 55.7%
viability, T/C [12]: 33.7%
viability, T/C [13]: 103%
viability, T/C [14]: 87.6%
viability, T/C [15]: 80.1%
viability, T/C [16]: 55.3%
viability, T/C [17]: 41.8%
viability, T/C [18]: 27.8%
viability, T/C [19]: 105%
viability, T/C [20]: 90.7%
viability, T/C [21]: 62.8%
viability, T/C [22]: 47%
viability, T/C [23]: 34.9%
viability, T/C [24]: 28.6%
viability, T/C [25]: 85.6%
viability, T/C [26]: 70.9%
viability, T/C [27]: 67.4%
viability, T/C [28]: 42.3%
viability, T/C [29]: 30.3%
viability, T/C [30]: 23%
